Measurements as given in the NIST ThermoML archive (doi:10.1016/j.jct.2018.04.005).
Numbers after ± are expanded uncertainties.

Key:
[1] = 100 kPa, Liquid, Vibrating tube method
[2] = xn = mol fraction of the nth substance listed; conditions: 100 kPa, Liquid, Vibrating tube method

CCCC[n+]1ccn(C)c1.O=S(=O)([N-]S(=O)(=O)C(F)(F)F)C(F)(F)F
[1]
Conditions	mass density [kg/m3]
293.15 K	1442.3 ± 4
298.15 K	1435.96 ± 4
303.15 K	1431.96 ± 4
308.15 K	1427.23 ± 4
313.15 K	1422.19 ± 4
318.15 K	1417.89 ± 4
323.15 K	1412.96 ± 4

CCCCn1cc[n+](C)c1.F[P-](F)(F)(F)(F)F [1-butyl-3-methylimidazolium hexafluorophosphate]
[1]
Conditions	mass density [kg/m3]
293.15 K	1370.73 ± 4
298.15 K	1366.5 ± 4
303.15 K	1361.63 ± 4
308.15 K	1359.45 ± 4
313.15 K	1355.23 ± 4
318.15 K	1351.63 ± 4
323.15 K	1347.23 ± 4

CCCCn1cc[n+](C)c1.F[P-](F)(F)(F)(F)F [1-butyl-3-methylimidazolium hexafluorophosphate] + COC(=O)OC
mass density [kg/m3], [2]
Conditions	x1 = 0.034	x1 = 0.0734	x1 = 0.1196	x1 = 0.1744	x1 = 0.2407	x1 = 0.3222	x1 = 0.4251	x1 = 0.559	x1 = 0.7404	x1 = 1
293.15 K	1099.2 ± 16	1128.63 ± 15	1159.82 ± 13	1189.04 ± 11	1220.08 ± 9.1	1249.42 ± 7.5	1278.97 ± 6.4	1308.93 ± 5.6	1339.9 ± 4.9	1370.73 ± 4
298.15 K	1092.76 ± 17	1122.91 ± 15	1154.74 ± 13	1183.63 ± 11	1214.03 ± 9.1	1244.28 ± 7.6	1274.43 ± 6.4	1303.88 ± 5.5	1335.38 ± 4.9	1366.5 ± 4
303.15 K	1086.29 ± 17	1116.15 ± 15	1148.32 ± 13	1177.52 ± 11	1208.51 ± 9.2	1238.99 ± 7.7	1269.31 ± 6.4	1298.92 ± 5.5	1330.3 ± 4.9	1361.63 ± 4
308.15 K	1080.03 ± 17	1110.74 ± 15	1142.49 ± 13	1173.19 ± 11	1203.38 ± 9.2	1234.34 ± 7.8	1265.31 ± 6.5	1295.41 ± 5.6	1327.51 ± 4.9	1359.45 ± 4
313.15 K	1073.79 ± 17	1104.95 ± 15	1136.01 ± 13	1167.14 ± 11	1197.82 ± 9.2	1229.08 ± 7.8	1260.15 ± 6.5	1290.91 ± 5.6	1322.98 ± 4.9	1355.23 ± 4
318.15 K	1067.23 ± 17	1098.5 ± 15	1130.22 ± 13	1161.77 ± 11	1192.91 ± 9.3	1224.39 ± 7.8	1255.4 ± 6.6	1286.76 ± 5.7	1318.91 ± 5	1351.63 ± 4
323.15 K	1060.39 ± 17	1092.27 ± 16	1125.56 ± 13	1156.96 ± 11	1187.95 ± 9.3	1219.55 ± 7.9	1250.82 ± 6.6	1282.14 ± 5.7	1314.13 ± 5	1347.23 ± 4

CCCCn1cc[n+](C)c1.F[B-](F)(F)F [1-butyl-3-methylimidazolium tetrafluoroborate]
[1]
Conditions	mass density [kg/m3]
293.15 K	1202.47 ± 4
298.15 K	1200.1 ± 4
303.15 K	1195.48 ± 4
308.15 K	1191.65 ± 4
313.15 K	1187.83 ± 4
318.15 K	1184.13 ± 4
323.15 K	1180.33 ± 4

COC(=O)OC [dimethyl carbonate]
[1]
Conditions	mass density [kg/m3]
293.15 K	1069.83 ± 4
298.15 K	1063.25 ± 4
303.15 K	1056.63 ± 4
308.15 K	1050.08 ± 4
313.15 K	1043.44 ± 4
318.15 K	1036.62 ± 4
323.15 K	1029.88 ± 4

COC(=O)OC [dimethyl carbonate] + CCCCn1cc[n+](C)c1.F[P-](F)(F)(F)(F)F
[2], x2 = 0
Conditions	mass density [kg/m3]
293.15 K	1069.83 ± 4
298.15 K	1063.25 ± 4
303.15 K	1056.63 ± 4
308.15 K	1050.08 ± 4
313.15 K	1043.44 ± 4
318.15 K	1036.62 ± 4
323.15 K	1029.88 ± 4
